Converted amounts (≈) assume the structure as drawn. “And” between values parts separate entries of the source, which are not always exact repeats. Identical values can stand only once.
Columns and labels:
[1] = molecular target: T1, recombinant HIV-1 Integrase (strand transfer) (Human immunodeficiency virus type 1 group M subtype B, UniProt P04585); assay: HIV integrase strand transfer inhibition; format: biochemical; conditions: for IC50: 100 nM integrase, 37 °C, 2 h
T1 construct: The recombinant HIV-1 Integrase (In) was isolated from the Rosetta Escherichia coli producer strain; made in house; host or cells: Escherichia coli Rosetta
Protocol: The recombinant HIV-1 Integrase (In) was isolated from the Rosetta Escherichia coli producer strain and purified without the addition of a detergent as described previously. Radioactive ^32P label was introduced at the 5′-end of the oligonucleotide. Testing of the compounds was performed according to the previously published procedure. Briefly: 5 nM ^32P-labeled 21 mer DNA duplex (5′-[…]-3′ and 5′-[…]-3′) for 3′-processing reaction or 10 nM 19/21 mer DNA duplex (5′-[…]-3′ and 5′-[…]-3′) for strand transfer was incubated in 20 µL of the buffer (20 mM HEPES, pH 7.2, 7.5 mM MgCl2, 1 mM DTT) in the presence of 100 nM integrase and increasing concentrations of the inhibitor at 37 °C for 2 h. The reaction products were assayed by 20% polyacrylamide gel electrophoresis (PAGE) with 7 M urea. The result was visualized by radioautography on a Typhoon FLA 9500 PhosphorImager (GE Healthcare Technologies, Chicago, IL, USA). The counting of radioautograms was performed using QuantityOne 4.6.6 software (Bio-Rad, Hercules, CA, USA). Calculation of IC50 parameters was carried out by Prism 8.0.1 software (GraphPad Software, San-Diego, CA, USA).

C. albicans ATCC 10231 = assay: MIC by twofold serial dilution, C. albicans; format: cell-based; conditions: Candida albicans, ATCC10231; 24 h, 35 °C; read-out: MIC (Mean ± SE) C. albicans ATCC 10231
Protocol: (§1) Candida albicans ATCC 10231, Pseudomonas aeruginosa ATCC 27853, and Staphylococcus aureus ATCC 29213 strains were obtained from the American Type Culture Collection (ATCC; Rockville, MD, USA). The subculture and inoculum preparation were performed according to CLSI M27-A3 for C. albicans on yeast extract peptone dextrose (YPD) agar (HiMedia, Mumbai, Maharashtra, India) and RPMI-1640 medium (PanEco, Moscow, Russia) with MOPS (3-(N-morpholino) propanesulfonic acid, >99.5%; PanEco, Moscow, Russia), and M7-A11 for P. aeruginosa and S. aureus on Mueller-Hinton agar (MHA; HiMedia, Mumbai, Maharashtra, India) and Mueller-Hinton broth (MHB; HiMedia, Mumbai, Maharashtra, India). The stock cell concentrations of fungus and bacteria were 1 × 10^6 and 1 × 10^8 cells/mL, respectively. A working suspension of C. albicans (5.0 × 10^2 cells/mL) was prepared by two-step dilution of the broth concentration with the RPMI-1640 medium. Assay suspensions of P. aeruginosa and S. aureus (1.0 × 10^6 cells/mL) were prepared by diluting the concentration with Mueller-Hinton broth (HiMedia, Mumbai, Maharashtra, India). Amphotericin B (Sigma-Aldrich, Burlington, MA, USA) and gentamicin (Sigma-Aldrich, Burlington, MA, USA) were used as secondary pharmaceutical standards.
(§2) The minimum inhibitory concentration (MIC) was determined by the twofold serial dilution method, according to CLSI M27-A3 [33] and M07-A11 [34], in three independent experiments with four replicates each. Amphotericin B was used as a positive control for fungus; gentamicin was used as a positive control for bacteria. Stock solutions except gentamicin were prepared in DMSO at a concentration of 6400 μg/mL. Gentanicin was solubilized in sterile water at a concentration of 1280 μg/mL. Stock solutions of the tested substances were diluted to the final concentrations in the assay medium and 100 μL of each sample was added to the wells of 96-well plates, and then 100 μL of inoculum was added. Rows 11 and 12 were left for the negative control (medium with inoculum without the drug) and sterility control. The plates were incubated for 24 h at 35 °C in the case of C. albicans and at 37 °C in the case of P. aeruginosa and S. aureus. The tested concentration for gentamicin ranged from 0.0625 to 32 μg/mL; for other compounds, it ranged from 0.125 to 64 μg/mL. The MIC value was determined using spectrophotometer. The MIC was taken to be the lowest drug concentration that caused complete inhibition of microorganism growth compared to the control. The final MIC values were reported as the means with standard error (SE). Standard errors for µg/mL values less than 0.01 were excluded; standard errors for µM values less than 0.1 were excluded (Table 3).

S. aureus ATCC 29213 = assay: MIC by twofold serial dilution, S. aureus; format: cell-based; conditions: Staphylococcus aureus, ATCC29213, 24 h, 37 °C, read-out: MIC (Mean ± SE) S. aureus ATCC 29213
Protocol: as §1, §2

P. aeruginosa ATCC 27853 = assay: MIC by twofold serial dilution, P. aeruginosa; format: cell-based; conditions: Pseudomonas aeruginosa, ATCC27853; 24 h, 37 °C; read-out: MIC (Mean ± SE) P. aeruginosa ATCC 27853
Protocol: as §1, §2

[2] = Neutral red (NR) cytotoxicity assay; format: cell-based; conditions: human, Huh-7.5 cells
Protocol: Huh7.5 cells were grown in the DMEM/F12 (2:1) medium supplemented with 10% FBS (BioSera, Cholet, France), 2 mM L-glutamine, 100 U/mL penicillin, and 100 µg/mL streptomycin in the presence of 5% CO2 at 37 °C. Cells were re-seeded every three days at a ratio of 1:3 or 1:5.
The 40 µg/mL neutral red working solution was prepared, incubated overnight at the same temperature as the cells, and then centrifuged for 10 min at 600× g to remove any precipitated dye crystals. After the incubation with compounds tested at 37 °C in 5% CO2 for 48 h, cells were washed with PBS and then 100 µL of neutral red medium was added to each well of the plate. The plate was incubated for 2 h at the appropriate culture conditions, then the neutral red medium was removed and the cells were washed with PBS. After that 150 µL neutral red destain solution per well was added (50% ethanol, 49% deionized water, 1% glacial acetic acid (Sigma-Aldrich, Burlington, MA, USA). After the neutral red was extracted from the cells and formed a homogeneous solution, the result of the analysis was evaluated using a Tecan Spark multimode microplate reader via absorbance at 540 nm.

[3] = Sulforhodamine B (SRB) cytotoxicity assay; format: cell-based; conditions: human, Huh-7.5 cells
Protocol: Huh7.5 cells were grown in the DMEM/F12 (2:1) medium supplemented with 10% FBS (BioSera, Cholet, France), 2 mM L-glutamine, 100 U/mL penicillin, and 100 µg/mL streptomycin in the presence of 5% CO2 at 37 °C. Cells were re-seeded every three days at a ratio of 1:3 or 1:5. After an incubation period, cell monolayers were fixed with 10% (w/v) trichloroacetic acid and stained for 30 min by adding 100 µL of 0.057% (w/v) SRB solution to each well, after which the excess dye is removed by washing repeatedly with 1% (v/v) acetic acid. The protein-bound dye is dissolved in 10 mM Tris-base solution with pH 10.5 for OD determination using a Tecan Spark multimode microplate reader via absorbance at 510 nm.

| SMILES | inhibition of strand transfer, in words [1] | IC50 [1] | MIC (C. albicans ATCC 10231) | MIC (S. aureus ATCC 29213) | MIC (P. aeruginosa ATCC 27853) | CC50 at 48 h [2] [µM] | CC50 [3] [µM] |
| --- | --- | --- | --- | --- | --- | --- | --- |
| Oc1c(N/N=C/c2ccccc2)ccc2cccnc12 [Compound I, 7-(2-Benzylidenohydrazinyl)-8-hydroxyquinoline] | weak activity | 160 ± 50 µM | 4 µg/mL and 15.2 µM | 52 µg/mL and 198 µM | > 64 µg/mL and > 243 µM | 14.5 ± 3.5 | 59.5 ± 12.5 |
| Oc1c(N/N=C/c2ccc(F)cc2)ccc2cccnc12 [VI, 7-(4-Fluorobenzylidenohydrazinyl)-8-hydroxyquinoline] |  | ~40 µM and 40 µM | 3.8 µg/mL and 13.6 µM | ≥ 64 µg/mL and ≥ 228 µM | > 64 µg/mL and > 228 µM | 6.7 ± 0.2 | 7 ± 0.2 |
| O=[N+]([O-])c1ccc(/C=N/Nc2ccc3cccnc3c2O)cc1 [II, 7-(4-Nitrobenzylidenohydrazinyl)-8-hydroxyquinoline] | ineffective | > 200 µM | 13 µM and 4 µg/mL | 14 ± 1.9 µg/mL (≈ 45.4 µM) | > 64 µg/mL and > 208 µM | 21 ± 4 | 8 ± 0.1 |
| Oc1c(N/N=C/c2ccc(Br)c(Br)c2)ccc2cccnc12 [V, 7-(3,4-Dibromobenzylidenohydrazinyl)-8-hydroxyquinoline] | ineffective | > 200 µM | 15.3 µg/mL and 36.3 µM | 36.3 ± 10.3 µg/mL (≈ 86.2 µM) | > 64 µg/mL and > 152 µM | 8.6 ± 0.1 | 6.9 ± 0.3 |
| COc1ccc(/C=N/Nc2ccc3cccnc3c2O)cc1 [IV, 7-(4-Methoxybenzylidenohydrazinyl)-8-hydroxyquinoline] | weak activity | 150 ± 50 µM | 8 µg/mL and 27.3 µM | 64 µg/mL and 218 µM | > 64 µg/mL and > 218 µM | 9.1 ± 1.5 | 40 ± 0.2 |
| O=[N+]([O-])c1cccc(/C=N/Nc2ccc3cccnc3c2O)c1 [III, 7-(3-Nitrobenzylidenohydrazinyl)-8-hydroxyquinoline] | weak activity | 190 ± 60 µM | 11.3 µg/mL and 36.8 µM | 18 ± 4.8 µg/mL (≈ 58.4 µM) | > 64 µg/mL and > 208 µM | 7.1 ± 0.7 | 7.1 ± 0.4 |

Reference: paper PMC12428554, “Anti-HIV and Antimicrobial Activity of 7-Hydrazino-8-hydroxyquinoline-Based Aromatic Hydrazones” (International Journal of Molecular Sciences, 2025)
